# Test results reported in PubChem BioAssay (NCI).
#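 Each compound was tested at five concentrations against cells in 96-well plates for 48 hours. GI50 = concentration required for 50% inhibition of growth. TGI marks complete inhibition of growth.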
# Assays:
# Assay in all cases: growth of human tumour cells (NCI), 48 h
# [1] = test system: CCRF-CEM leukemia
# [2] = test system: HCC-2998 colon
# [3] = test system: NCI-H522 lung
# [4] = test system: OVCAR-8 ovarian
# [5] = test system: SF-268 CNS
# [6] = test system: SK-MEL-28 melanoma
# [7] = test system: UO-31 renal
# [8] = test system: HOP-92 NSCLC
SMILES,GI50 [1] [µM],TGI [1] [µM],GI50 [2] [µM],TGI [2] [µM],GI50 [3] [µM],TGI [3] [µM],GI50 [4] [µM],TGI [4] [µM],GI50 [5] [µM],TGI [5] [µM],GI50 [6] [µM],TGI [6] [µM],GI50 [7] [µM],TGI [7] [µM],GI50 [8] [µM],TGI [8] [µM]
O=P(Oc1ccccc1)(Oc1ccccc1)C(O)c1ccccc1 (stereo unspecified),> 100,> 100,> 100,> 100,25.4,> 100,> 100,> 100,> 100,> 100,85.7,> 100,29.8,> 100,–,–
Cc1cc(S(=O)(=O)Nc2nnc(-c3ccco3)c(-c3ccco3)n2)c(SCc2ccccc2)cc1Cl,23.2,66.1,20.4,36.8,24.8,65.7,26.6,71.1,20.1,41.2,20.7,40.5,21.7,50.4,21.5,45.4
COc1ccc(/C=C/C(=O)/C=C(/C=C/c2ccc(OC)c(OC)c2)OB(F)F)cc1OC,0.323,2.63,2.02,4.17,0.291,1.45,0.417,> 100,2.42,> 100,1.18,3.1,0.652,3.72,1.71,4.89
O=C(O)CSCC(=O)c1ccccc1,–,–,–,–,–,> 100,–,> 100,–,> 100,–,> 100,–,> 100,–,> 100
CN(C)CCCNC(=O)c1cc(NC(=O)c2cc(NC(=O)CCCN3c4ccccc4C=Cc4ccccc43)cn2C)cn1C,2.82,12.7,2.17,4.03,4.11,19.8,17.3,72.2,5.06,> 100,–,–,23.5,59.7,10,78.7
Clc1ccc(Nc2ccnc(NCCNc3ccnc4cc(Cl)ccc34)n2)cc1,1.01,2.62,1.22,2.59,1.7,3.27,1.59,3.37,1.45,2.82,1.58,3.03,1.21,2.6,0.126,2
O=c1oc2ccccc2c(Cl)c1Cl,0.595,30,9.86,21.8,3.46,15.5,4.23,17.4,3.91,16.3,2.68,7.76,1.83,4.73,5.71,18.6
O=C(O)C(Cc1ccccc1-c1ccccc1)C(=O)O,–,–,–,–,–,> 100,–,> 100,–,> 100,–,> 100,–,> 100,–,> 100
O=C(Nc1cccc(NS(=O)(=O)c2ccc(F)cc2)c1)c1ccc(-c2ccccc2)cc1,3.46,> 100,3.48,24.4,2.5,13,2.88,17.5,3.22,66.6,3.54,16.9,2.56,16.9,1.93,8.22
COc1cc(-c2cc(C(=O)Nc3nc4ccccc4s3)nc3cc(-c4ccccc4)nn23)cc(OC)c1OC,54.1,> 100,> 100,> 100,1.96,7.82,5.37,> 100,4.5,48.8,3.34,> 100,> 100,> 100,0.775,5.24
O=C(O)C1CCCN1Cc1c[nH]c2ccccc12 (stereo unspecified),–,> 100,–,–,–,> 100,–,> 100,–,> 100,–,> 100,–,> 100,–,> 100
O=C1CC2(CCCc3sccc32)C(=O)N1 (stereo unspecified),–,> 100,–,> 100,–,> 100,–,> 100,–,> 100,–,> 100,–,> 100,–,> 100
COc1ccc(/C=C\c2cc(OC)c(OC)c(OC)c2)cc1NC(=O)[C@@H](N)CO,0.0263,> 100,0.0199,> 100,< 0.01,0.0457,0.0328,> 100,0.0462,> 100,–,–,0.0486,> 69.7,0.0103,64.5
Nc1nc(SCC(=O)O)[nH]c(=O)c1N,–,7.24,–,–,–,> 100,–,> 100,–,> 100,–,> 100,–,> 100,–,> 100
CC(C)SC1SCC2C(=O)N(C)C3(CC3C)C(=O)OCC(NC(=O)c3nc4ccccc4cc3O)C(=O)NC(C)C(=O)N(C)C1C(=O)N(C)C1(CC1C)C(=O)OCC(NC(=O)c1nc3ccccc3cc1O)C(=O)NC(C)C(=O)N2C (stereo unspecified),–,< 0.0001,–,< 0.0001,–,< 0.0001,–,–,–,0.00129,–,< 0.0001,–,< 0.0001,–,< 0.0001
Cc1c(C(=O)N/N=C/c2ccc(O)cc2)nnn1-c1ccnc2c(C(F)(F)F)cccc12,> 100,> 100,> 100,> 100,49.9,> 100,21.5,> 100,64.4,> 100,> 100,> 100,> 100,> 100,17,50.4
C=C(CN1CCc2ccccc2C1)c1ccc(/C=C/C(=O)Nc2ccccc2N)cc1,1.04,> 100,2.04,34.5,0.783,14.7,5.86,> 100,2.44,55.3,46.7,> 100,0.437,> 100,8,52.8
